# Reference: ChEMBL document CHEMBL4219219, “The synthesis and antistaphylococcal activity of N-sulfonaminoethyloxime derivatives of dehydroabietic acid” (Bioorg Med Chem Lett, 2018)
# Calls of active or inactive are those of the source. No cut-off for these calls is given here.
# Columns and labels:
# [1] = system: Staphylococcus aureus; assay: Antistaphylococcal activity against Staphylococcus aureus Newman treated with increasing concentration of test compound everyday for 12 hrs measured after 20 days by two-fold serial dilution method; assay type: functional
# [2] = system: Staphylococcus aureus; assay: Antistaphylococcal activity against aminoglycosides/tetracycline-resistant Staphylococcus aureus NRS-1 after 18 hrs by two-fold serial dilution method; assay type: functional; conditions: NRS-1, 18 h
# [3] = system: Staphylococcus aureus; assay: Antistaphylococcal activity against gentamicin-resistant Staphylococcus aureus NRS-108 after 18 hrs by two-fold serial dilution method; assay type: functional; conditions: NRS-108, 18 h
# [4] = system: Staphylococcus aureus; assay: Antistaphylococcal activity against erythromycin-resistant Staphylococcus aureus NRS-70 treated with increasing concentration of test compound everyday for 12 hrs measured after 20 days by two-fold serial dilution method; assay type: functional
# [5] = system: Staphylococcus aureus; assay: Metabolic stability in Staphylococcus aureus Newman at MIC after 12 hrs by LC-MS analysis; assay type: ADME, organism-based; conditions: in vivo
# [6] = system: Staphylococcus aureus; assay: Antistaphylococcal activity against oxacillin/tetracycline-resistant Staphylococcus aureus NRS-100 after 18 hrs by two-fold serial dilution method; assay type: functional; conditions: NRS-100, 18 h
# [7] = system: Staphylococcus aureus; assay: Antistaphylococcal activity against Staphylococcus aureus Newman after 18 hrs by two-fold serial dilution method; assay type: functional
# [8] = system: Staphylococcus aureus; assay: Antistaphylococcal activity against linezolid-resistant Staphylococcus aureus NRS-271 containing phage type E-MRSA 15 after 18 hrs by two-fold serial dilution method; assay type: functional; conditions: NRS-271, 18 h
# [9] = system: Escherichia coli; assay: Antibacterial activity against Escherichia coli AB1157 at 50 ug/ml after 18 hrs by two-fold serial dilution method; assay type: functional, organism-based
# [10] = system: HGC-27; assay: Cytotoxicity against human HGC27 cells assessed as decrease in cell survival at 20 times MIC after 24 hrs by MTT assay; assay type: cell-based; conditions: hgc-27, 24 h
# [11] = system: NCI-H23; assay: Cytotoxicity against human H23 cells assessed as decrease in cell survival at 20 times MIC after 24 hrs by MTT assay; assay type: cell-based; conditions: nci-h23, 24 h
# [12] = system: J82; assay: Cytotoxicity against human J82 cells assessed as decrease in cell survival at 20 times MIC after 24 hrs by MTT assay; assay type: cell-based; conditions: j82, 24 h
# [13] = system: Staphylococcus aureus; assay: Antistaphylococcal activity against erythromycin-resistant Staphylococcus aureus NRS-70 after 18 hrs by two-fold serial dilution method; assay type: functional; conditions: NRS-70, 18 h
# [14] = Metabolic stability in Sprague-Dawley rat plasma after 0.5 to 24 hrs by LC-MS analysis; assay type: ADME, cell-free
# [15] = system: SCLC-21H; assay: Cytotoxicity against human SCLC-21H cells assessed as decrease in cell survival at 20 times MIC after 24 hrs by MTT assay; assay type: cell-based
# [16] = system: WiDr; assay: Cytotoxicity against human WiDr cells assessed as decrease in cell survival at 20 times MIC after 24 hrs by MTT assay; assay type: cell-based
# [17] = system: HEK-293T; assay: Cytotoxicity against HEK293T cells assessed as decrease in cell survival at 20 times MIC after 24 hrs by MTT assay; assay type: cell-based; conditions: human
compound,measurement,setting,value
Cc1noc(C)c1S(=O)(=O)NCCO/N=C1\C[C@H]2[C@](C)(C(=O)O)CCC[C@]2(C)c2cc(Br)c(C(C)C)cc21,MIC,[1],6.25 to 12.5 µg/mL
same,MIC,[2],1.56 to 3.13 µg/mL
same,MIC,[3],1.56 to 3.13 µg/mL
same,MIC,[4],6.25 to 12.5 µg/mL
same,Stability,[5],Stable
same,MIC,[6],3.13 to 6.25 µg/mL
same,MIC,[7],1.56 to 3.13 µg/mL
same,MIC,[8],1.56 to 3.13 µg/mL
same,Activity,[9],inactive
same,Activity,[10],Non-Toxic
same,Activity,[11],Non-Toxic
same,Activity,[12],Non-Toxic
same,MIC,[13],1.56 to 3.13 µg/mL
same,Stability,[14],Stable
same,Activity,[15],Non-Toxic
same,Activity,[16],Non-Toxic
same,Activity,[17],Non-Toxic
CC(C)c1cc2c(cc1Br)[C@@]1(C)CCC[C@@](C)(C(=O)O)[C@@H]1C/C2=N\OCCNS(=O)(=O)c1ccc(C(F)(F)F)cc1,MIC,[2],0.78 to 1.56 µg/mL
same,MIC,[3],0.78 to 1.56 µg/mL
same,Stability,[5],Stable
same,MIC,[6],0.78 to 1.56 µg/mL
same,MIC,[7],1.56 to 3.13 µg/mL
same,MIC,[8],0.78 to 1.56 µg/mL
same,Activity,[9],inactive
same,Activity,[10],Non-Toxic
same,Activity,[11],Non-Toxic
same,Activity,[12],Non-Toxic
same,MIC,[13],0.78 to 1.56 µg/mL
same,Stability,[14],Stable
same,Activity,[15],Non-Toxic
same,Activity,[16],Non-Toxic
same,Activity,[17],Non-Toxic
CC(C)c1cc2c(cc1Br)[C@@]1(C)CCC[C@@](C)(C(=O)O)[C@@H]1C/C2=N\OCCNS(=O)(=O)c1cccc2cccnc12,MIC,[2],1.56 to 3.13 µg/mL
same,MIC,[3],3.13 to 6.25 µg/mL
same,MIC,[6],3.13 to 6.25 µg/mL
same,MIC,[7],1.56 to 3.13 µg/mL
same,MIC,[8],3.13 to 6.25 µg/mL
same,Activity,[9],inactive
same,MIC,[13],1.56 to 3.13 µg/mL
CC(C)c1cc2c(cc1Br)[C@@]1(C)CCC[C@@](C)(C(=O)O)[C@@H]1C/C2=N\OCCNS(=O)(=O)c1ccccc1Br,MIC,[2],1.56 to 3.13 µg/mL
same,MIC,[3],1.56 to 3.13 µg/mL
same,MIC,[6],1.56 to 3.13 µg/mL
same,MIC,[7],1.56 to 3.13 µg/mL
same,MIC,[8],1.56 to 3.13 µg/mL
same,Activity,[9],inactive
same,MIC,[13],1.56 to 3.13 µg/mL
